{"source": "paper PMC9101684", "about": "“Hempseed (Cannabis sativa) Peptide H3 ([sequence]) Exerts Cholesterol-Lowering Effects in Human Hepatic Cell Line” (Nutrients, 2022)", "key": {"Caco-2 cells": {"system": "Caco-2 cells", "conditions": "differentiated Caco-2; cited from earlier work", "description": "CVD is a multifactorial pathology in which oxidative and inflammatory status as well as hypercholesterolemia are among the main risk factors. […] To achieve this goal, a deeper study was carried out for characterizing the potential effect of peptide H3 o ..."}, "HepG2 cells": {"system": "HepG2 cells", "assay": "MTT assay, HepG2 cell viability", "assay_type": "cell-based, human", "conditions": "48 h", "description": "A total of 3 × 10^4 HepG2 cells/well were seeded in 96-well plates and treated with peptide H3 (0.00001, 0.0001, 0.001, 0.01, 0.1, and 1.0 mM) or vehicle (H2O) in complete growth media at 37 °C for 48 h under 5% CO2 atmosphere. MTT experiments were performed using the protocol reported in the Supplementary Materials.\nHMGCoAR were provided in the HMGCoAR Assay Kit (Sigma Aldrich SRL, Milan, Italy). The experiments were carried out following the manufacturer instructions at 37 °C. […] Subsequently, the samples were mixed and the absorbance at 340 nm read by the microplate reader Synergy H1 […]\nvehicle (H2O) in complete growth media for at 37 °C under 5% CO2 atmosphere for 48 h. […] After 5 min of slow shaking, the absorbance at 575 nm was read on the Synergy H1 fluorescence plate reader (Biotek, Bad Friedrichshall, Germany). […]\nFor the experiments, a total of 3 X 10 4 HepG2 cells/well were seeded in 96-well plates. […] The reaction was stopped with 2 M H2SO4 and then the absorbance at 450 nm was measured using the microplate reader Synergy H1 (Winooski, VT, USA). After the read, cells were stained by adding 1 X Janus Green stain, incubating for 5 min at RT. […]\nAfterward 100 µL 0.5 M HCl for well were added and incubated for 10 min. After 10 min shaking, the OD at 595 nm was measured using the microplate reader Synergy H1 (Winooski, VT, USA). […]"}, "[1]": {"target": "T1, HMGCoAR (catalytic domain) (Homo sapiens, UniProt P04035)", "T1 construct": "HMGCoAR (catalytic domain) (2 µL); purchased Sigma-Aldrich", "T1 sequence (P04035 426-888 limits assumed)": "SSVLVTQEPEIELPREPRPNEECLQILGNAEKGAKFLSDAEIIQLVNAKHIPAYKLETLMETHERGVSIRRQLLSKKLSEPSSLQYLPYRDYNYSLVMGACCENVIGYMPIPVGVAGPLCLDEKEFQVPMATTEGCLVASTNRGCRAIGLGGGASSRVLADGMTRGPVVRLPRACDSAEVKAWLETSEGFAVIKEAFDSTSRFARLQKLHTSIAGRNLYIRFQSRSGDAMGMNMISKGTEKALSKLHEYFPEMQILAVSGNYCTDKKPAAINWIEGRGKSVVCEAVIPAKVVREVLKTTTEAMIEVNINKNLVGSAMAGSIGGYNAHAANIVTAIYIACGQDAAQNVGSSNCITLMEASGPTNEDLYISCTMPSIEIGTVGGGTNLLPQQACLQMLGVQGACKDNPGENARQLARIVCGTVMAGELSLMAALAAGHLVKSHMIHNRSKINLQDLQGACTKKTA", "assay": "HMGCoAR activity assay (NADPH oxidation, absorbance 340 nm)", "assay_type": "biochemical", "conditions": "purified catalytic domain of HMGCoAR; H3 10-1000 μM; 37 °C; absorbance 340 nm at 0 and 10 min; three independent experiments in triplicate"}}, "note": "Where no end group is shown, it is not given here."}
{"sequence": "IGFLIIWV [H3]", "values": [{"measurement": "intestinal trans-epithelial transport", "setting": "Caco-2 cells", "value": "transported intact by differentiated Caco-2"}, {"measurement": "reduced cell viability", "setting": "HepG2 cells; 1 mM H3, mean ± S.D. of three experiments in triplicate, Figure S1", "value": "19.63 ± 0.59", "unit": "%"}, {"measurement": "effect on HepG2 viability", "setting": "HepG2 cells; up to 100 µM, versus control cells, three experiments in triplicate", "value": "no effect on HepG2 viability was observed up to 100 µM"}, {"measurement": "IC50", "setting": "[1]", "value": 59, "unit": "µM"}]}
